Test results as given in US7238688B2, “Piperidine compounds” (Schering Corporation, priority 2001, dated 2007).
“And” between values parts separate entries of the source, which are not always exact repeats. Identical values can stand only once.

Molecular target: T1, H3 receptors (Cavia porcellus, UniProt Q9JI35)
T1 construct: The source of the H3 receptors in this experiment was guinea pig brain; from tissue; host or cells: guinea pig brain membranes
Assay: H3-Receptor Binding Assay
Settings: guinea pig brain membranes; 3 nM [3H]R-α-methyl histamine or 3 nM [3H]N-methyl histamine; 30° C. for 30 min
Method: General Procedure for H3-Receptor Binding Assay
The source of the H3 receptors in this experiment was guinea pig brain. The animals weighed 400–600 g. The brain tissue was homogenized with a solution of 50 mM Tris, pH 7.5. The final concentration of tissue in the homogenization buffer was 10% w/v. The homogenates were centrifuged at 1,000×g for 10 min. in order to remove clumps of tissue and debris. The resulting supernatants were then centrifuged at 50,000×g for 20 min. in order to sediment the membranes, which were next washed three times in homogenization buffer (50,000×g for 20 min. each). The membranes were frozen and stored at −70° C. until needed.
All compounds to be tested were dissolved in DMSO and then diluted into the binding buffer (50 mM Tris, pH 7.5) such that the final concentration was 2 μg/ml with 0.1% DMSO. Membranes were then added (400 μg of protein) to the reaction tubes. The reaction was started by the addition of 3 nM[^3H]R-α-methyl histamine (8.8 Ci/mmol) or 3 nM [^3H]N[…] -methyl histamine (80 Ci/mmol) and continued under incubation at 30° C. for 30 min. Bound ligand was separated from unbound ligand by filtration, and the amount of radioactive ligand bound to the membranes was quantitated by liquid scintillation spectrometry.

T1 sequence (Q9JI35 whole entry): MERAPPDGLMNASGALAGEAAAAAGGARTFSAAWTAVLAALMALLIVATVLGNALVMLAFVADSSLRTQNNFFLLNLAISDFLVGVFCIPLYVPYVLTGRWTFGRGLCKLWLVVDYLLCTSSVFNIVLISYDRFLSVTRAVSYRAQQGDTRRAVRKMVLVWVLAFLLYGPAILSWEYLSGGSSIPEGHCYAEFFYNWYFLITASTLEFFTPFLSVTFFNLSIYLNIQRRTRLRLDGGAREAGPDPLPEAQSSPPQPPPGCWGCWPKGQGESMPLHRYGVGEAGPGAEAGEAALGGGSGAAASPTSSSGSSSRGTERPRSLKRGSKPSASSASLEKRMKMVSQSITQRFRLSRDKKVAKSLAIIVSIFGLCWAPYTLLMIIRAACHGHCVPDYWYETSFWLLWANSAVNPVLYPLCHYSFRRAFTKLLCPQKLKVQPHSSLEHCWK

Ki, 0.2 to 35 nM:
O=C(C1CCN(Cc2ccncc2)CC1)N1CCN(Cc2ccccc2Br)CC1 [Compound 93]
O=C(NCCc1ccccc1)c1cccc(CN2CCN(C(=O)C3CCN(Cc4ccncc4)CC3)CC2)c1 [Compound 276]
Nc1cc(CN2CCC(C(=O)N3CCN(Cc4cccc(Cl)c4S(=O)(=O)N4CCOCC4)CC3)CC2)ccn1 [Compound 317]
Nc1cc(CN2CCC(C(=O)N3CCN(Cc4cc(F)ccc4Br)CC3)CC2)ccn1 [Compound 328]
Cc1noc(C)c1CN1CCN(C(=O)C2CCN(Cc3ccnc(N)c3)CC2)CC1 [Compound 331]
CN(c1ccc(Cl)cc1)S(=O)(=O)c1cc(F)ccc1CN1CCN(C(=O)C2CCN(Cc3ccnc(N)c3)CC2)CC1 [Compound 343]
CN(C)S(=O)(=O)N1CCN(C(=O)C2CCN(Cc3ccnc(N)c3)CC2)CC1 [Compound 367]
Nc1cc(CN2CCC(C(=O)N3CCN(S(=O)(=O)c4cc(Cl)cc(Cl)c4)CC3)CC2)ccn1 [Compound 376]

Ki, 0.2 to 35 nM and 2 to 22 nM:
Nc1cc(CN2CCC(C(=O)N3CCN(Cc4c(F)ccc(F)c4F)CC3)CC2)ccn1 [Compound 306]
CN(C)S(=O)(=O)c1cc(F)ccc1CN1CCN(C(=O)C2CCN(Cc3ccnc(N)c3)CC2)CC1 [Compound 332]
Nc1cc(CN2CCC(C(=O)N3CCN(Cc4cc(-c5ccc(Cl)cc5)on4)CC3)CC2)ccn1 [Compound 333]
Nc1cc(CN2CCC(C(=O)N3CCN(Cc4c(F)cccc4Cl)CC3)CC2)ccn1 [Compound 336]
Nc1cc(CN2CCC(C(=O)N3CCN(S(=O)(=O)c4ccc(Cl)cc4)CC3)CC2)ccn1 [Compound 366]
Nc1cc(CN2CCC(C(=O)N3CCN(S(=O)(=O)c4ccccc4Cl)CC3)CC2)ccn1 [Compound 374]
